Measured values taken from patent US8952157B2, “Apoptosis-inducing agents for the treatment of cancer and immune and autoimmune diseases” (AbbVie Inc., priority 2008, dated 2015).

target: GST-Bcl-2 (Homo sapiens (Human), UniProt P10415); assay: Time Resolved-Fluorescence Resonance Energy Transfer (TR-FRET) Bcl-2 binding assay; conditions: not given
How it was run: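 Ki values derived from TR-FRET displacement of F-Bak peptide from GST-Bcl-2, detected with Tb-labelled anti-GST antibody (ex 340, em 520/495 nm). Compound dilution series started at 50 μM (2× starting concentration); room-temperature incubation 3 hours.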

GST-Bcl-2, sequence (P10415 whole entry): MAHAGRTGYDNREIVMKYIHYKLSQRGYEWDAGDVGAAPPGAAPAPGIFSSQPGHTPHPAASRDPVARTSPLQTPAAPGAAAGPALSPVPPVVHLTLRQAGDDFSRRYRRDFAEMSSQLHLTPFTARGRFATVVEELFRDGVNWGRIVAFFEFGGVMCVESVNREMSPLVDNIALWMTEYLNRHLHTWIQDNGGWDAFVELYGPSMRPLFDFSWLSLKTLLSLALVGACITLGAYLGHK

Row | Structure (SMILES) | Ki [nM]
1 | O=C(NS(=O)(=O)c1ccc(N[C@H]2CC[C@H](N3CCOCC3)CC2)c(S(=O)(=O)C(F)(F)F)c1)c1ccc(N2CCN(CC3=C(c4ccc(Cl)cc4)CCOCC3)CC2)cc1Oc1cc2cc[nH]c2cc1Cl [Example 314, Trans-2-[(6-chloro-1H-indol-5-yl)oxy]-4-(4-{[5-(4-chlorophenyl)-2,3,6,7-tetrahydrooxepin-4-yl]methyl}piperazin-1-yl)-N-({4-[(4-morpholin-4-ylcyclohexyl)amino]-3-[(trifluoromethyl)sulfonyl]phenyl}sulfonyl)benzamide] | 3.09

same assay, conditions: GST-Bcl-2 1 nM, F-Bak peptide probe 100 nM, Tb-anti-GST antibody 1 nM; Ki by Wang's equation

Row | Structure (SMILES) | Ki [nM]
2 | CC1(C)CCC(CN2CCN(c3ccc(C(=O)NS(=O)(=O)c4ccc(NC5CCN(CCc6ccccc6)CC5)c([N+](=O)[O-])c4)c(Oc4cccc(Cl)c4)c3)CC2)=C(c2ccc(Cl)cc2)C1 [Example 163, 2-(3-chlorophenoxy)-4-(4-{[2-(4-chlorophenyl)-4,4-dimethylcyclohex-1-en-1-yl]methyl}piperazin-1-yl)-N-[(3-nitro-4-{[1-(2-phenylethyl)piperidin-4-yl]amino}phenyl)sulfonyl]benzamide] | 0.686
3 | CN(C)CCCNc1ccc(S(=O)(=O)NC(=O)c2ccc(N3CCN(CC4=C(c5ccc(Cl)cc5)CC(C)(C)CC4)CC3)cc2Oc2ccc3c(ccn3C(=O)OC(C)(C)C)c2)cc1[N+](=O)[O-] [Example 231, tert-butyl 5-[5-(4-{[2-(4-chlorophenyl)-4,4-dimethylcyclohex-1-en-1-yl]methyl}piperazin-1-yl)-2-({[(4-{[3-(dimethylamino)propyl]amino}-3-nitrophenyl)sulfonyl]amino}carbonyl)phenoxy]-1H-indole-1-carboxylate] | 36.9
4 | CN(C)c1cccc(Oc2cc(N3CCN(Cc4ccccc4-c4ccc(Cl)cc4)CC3)ccc2C(=O)NS(=O)(=O)c2ccc(NCC3CCOCC3)c([N+](=O)[O-])c2)c1 [Example 21, 4-(4-((4′-chloro-1,1′-biphenyl-2-yl)methyl)piperazin-1-yl)-2-(3-(dimethylamino)phenoxy)-N-((3-nitro-4-((tetrahydro-2H-pyran-4-ylmethyl)amino)phenyl)sulfonyl)benzamide] | 14.1
5 | CC(C)c1cc(Oc2cc(N3CCN(CC4=C(c5ccc(Cl)cc5)CC(C)(C)CC4)CC3)ccc2C(=O)NS(=O)(=O)c2ccc(NCC3CCOCC3)c([N+](=O)[O-])c2)cnc1N [Example 365, 2-[(6-amino-5-isopropylpyridin-3-yl)oxy]-4-(4-{[2-(4-chlorophenyl)-4,4-dimethylcyclohex-1-en-1-yl]methyl}piperazin-1-yl)-N-({3-nitro-4-[(tetrahydro-2H-pyran-4-ylmethyl)amino]phenyl}sulfonyl)benzamide] | 4.55
6 | CCN(Cc1ccc(Oc2cc(N3CCN(Cc4ccccc4-c4ccc(Cl)cc4)CC3)ccc2C(=O)NS(=O)(=O)c2ccc(NCC3CCOCC3)c([N+](=O)[O-])c2)cc1)C(=O)OC(C)(C)C [Example 78, tert-butyl 4-(5-(4-((4′-chloro-1,1′-biphenyl-2-yl)methyl)piperazin-1-yl)-2-((((3-nitro-4((tetrahydro-2H-pyran-4-ylmethyl)amino)phenyl)sulfonyl)amino)carbonyl)phenoxy)benzyl(ethyl)carbamate] | > 1200
7 | CN1CCN(CCCNc2ccc(S(=O)(=O)NC(=O)c3ccc(N4CCN(CC5=C(c6ccc(Cl)cc6)CC(C)(C)CC5)CC4)cc3Oc3cccc(Cl)c3)cc2[N+](=O)[O-])CC1 [Example 143, 2-(3-chlorophenoxy)-4-(4-{[2-(4-chlorophenyl)-4,4-dimethylcyclohex-1-en-1-yl]methyl}piperazin-1-yl)-N-[(4-{[3-(4-methylpiperazin-1-yl)propyl]amino}-3-nitrophenyl)sulfonyl]benzamide] | 0.053
8 | CN1CCC(Nc2ccc(S(=O)(=O)NC(=O)c3ccc(N4CCN(CC5=C(c6ccc(Cl)cc6)CC(C)(C)CC5)CC4)cc3Oc3ccc(N)c(Cl)c3)cc2[N+](=O)[O-])CC1 [Example 40, 2-(4-amino-3-chlorophenoxy)-4-(4-((2-(4-chlorophenyl)-4,4-dimethylcyclohex-1-en-1-yl)methyl)piperazin-1-yl)-N-((4-((1-methylpiperidin-4-yl)amino)-3-nitrophenyl)sulfonyl)benzamide] | 0.019
9 | CC(C)N1CCC(Nc2ccc(S(=O)(=O)NC(=O)c3ccc(N4CCN(CC5=C(c6ccc(Cl)cc6)CC(C)(C)CC5)CC4)cc3Oc3ccccc3Cl)cc2[N+](=O)[O-])CC1 [Example 41, 2-(2-chlorophenoxy)-4-(4-((2-(4-chlorophenyl)-4,4-dimethylcyclohex-1-en-1-yl)methyl)piperazin-1-yl)-N-((4-((1-isopropylpiperidin-4-yl)amino)-3-nitrophenyl)sulfonyl)benzamide] | 0.027
10 | CC1(C)CCC(CN2CCN(c3ccc(C(=O)NS(=O)(=O)c4ccc(NCC5CCOCC5)c([N+](=O)[O-])c4)c(Oc4cnc5[nH]ccc5c4Cl)c3)CC2)=C(c2ccc(Cl)cc2)C1 [Example 384, 4-(4-{[2-(4-chlorophenyl)-4,4-dimethylcyclohex-1-en-1-yl]methyl}piperazin-1-yl)-2-[(4-chloro-1H-pyrrolo[2,3-b]pyridin-5-yl)oxy]-N-({3-nitro-4-[(tetrahydro-2H-pyran-4-ylmethyl)amino]phenyl}sulfonyl)benzamide] | 6.23
11 | Cc1ccccc1Oc1cc(N2CCN(CC3=C(c4ccc(Cl)cc4)CC(C)(C)CC3)CC2)ccc1C(=O)NS(=O)(=O)c1ccc(NC2CCN(C)CC2)c([N+](=O)[O-])c1 [Example 181, 4-(4-{[2-(4-chlorophenyl)-4,4-dimethylcyclohex-1-en-1-yl]methyl}piperazin-1-yl)-2-(2-methylphenoxy)-N-({4-[(1-methylpiperidin-4-yl)amino]-3-nitrophenyl}sulfonyl)benzamide] | 0.119
12 | CC1(C)CCC(CN2CCN(c3ccc(C(=O)NS(=O)(=O)c4ccc(NCC5CCOCC5)c([N+](=O)[O-])c4)c(Oc4cc(N)ncc4Br)c3)CC2)=C(c2ccc(Cl)cc2)C1 [Example 395, 2-[(2-amino-5-bromopyridin-4-yl)oxy]-4-(4-{[2-(4-chlorophenyl)-4,4-dimethylcyclohex-1-en-1-yl]methyl}piperazin-1-yl)-N-({3-nitro-4-[(tetrahydro-2H-pyran-4-ylmethyl)amino]phenyl}sulfonyl)benzamide] | 0.077
13 | N#Cc1cccc(Oc2cc(N3CCN(Cc4ccccc4-c4ccc(Cl)cc4)CC3)ccc2C(=O)NS(=O)(=O)c2ccc(NCC3CCOCC3)c([N+](=O)[O-])c2)c1 [Example 22, 4-(4-((4′-chloro-1,1′-biphenyl-2-yl)methyl)piperazin-1-yl)-2-(3-cyanophenoxy)-N-((3-nitro-4-((tetrahydro-2H-pyran-4-ylmethyl)amino)phenyl)sulfonyl)benzamide] | 5.46
14 | CC1(C)CCC(CN2CCN(c3ccc(C(=O)NS(=O)(=O)c4ccc(N[C@@H]5CCN(C6CC6)C5)c([N+](=O)[O-])c4)c(Oc4cnc(N)c(Cl)c4)c3)CC2)=C(c2ccc(Cl)cc2)C1 [Example 370, 2-[(6-amino-5-chloropyridin-3-yl)oxy]-4-(4-{[2-(4-chlorophenyl)-4,4-dimethylcyclohex-1-en-1-yl]methyl}piperazin-1-yl)-N-[(4-{[(3R)-1-cyclopropylpyrrolidin-3-yl]amino}-3-nitrophenyl)sulfonyl]benzamide] | < 0.01
15 | CN1CC[C@H](Nc2ccc(S(=O)(=O)NC(=O)c3ccc(N4CCN(CC5=C(c6ccc(Cl)cc6)CC(C)(C)CC5)CC4)cc3Oc3cccc(Cl)c3)cc2[N+](=O)[O-])C1 [Example 194, 2-(3-chlorophenoxy)-4-(4-{[2-(4-chlorophenyl)-4,4-dimethylcyclohex-1-en-1-yl]methyl}piperazin-1-yl)-N-[(4-{[(3S)-1-methylpyrrolidin-3-yl]amino}-3-nitrophenyl)sulfonyl]benzamide] | 0.317
16 | CN(C)C1CCC(Nc2ccc(S(=O)(=O)NC(=O)c3ccc(N4CCN(CC5=C(c6ccc(Cl)cc6)CC(C)(C)CC5)CC4)cc3Oc3cccc(Cl)c3)cc2[N+](=O)[O-])CC1 (centres unmarked) [Example 203, 2-(3-chlorophenoxy)-4-(4-{[2-(4-chlorophenyl)-4,4-dimethylcyclohex-1-en-1-yl]methyl}piperazin-1-yl)-N-[(4-{[4-(dimethylamino)cyclohexyl]amino}-3-nitrophenyl)sulfonyl]benzamide] | 0.084
17 | CC1(C)CCC(CN2CCN(c3ccc(C(=O)NS(=O)(=O)c4cnc(OCC5CCOCC5)c(Cl)c4)c(Oc4cc5cc[nH]c5cc4F)c3)CC2)=C(c2ccc(Cl)cc2)C1 [Example 303, 4-(4-{[2-(4-chlorophenyl)-4,4-dimethylcyclohex-1-en-1-yl]methyl}piperazin-1-yl)-N-{[5-chloro-6-(tetrahydro-2H-pyran-4-ylmethoxy)pyridin-3-yl]sulfonyl}-2-[(6-fluoro-1H-indol-5-yl)oxy]benzamide] | 0.092
18 | CC1(C)CCC(CN2CCN(c3ccc(C(=O)NS(=O)(=O)c4cnc(OC5CCN(C6CCOCC6)CC5)c(C#N)c4)c(Oc4cc5cc[nH]c5cc4F)c3)CC2)=C(c2ccc(Cl)cc2)C1 [Example 325, 4-(4-{[2-(4-chlorophenyl)-4,4-dimethylcyclohex-1-en-1-yl]methyl}piperazin-1-yl)-N-({5-cyano-6-[(1-tetrahydro-2H-pyran-4-ylpiperidin-4-yl)oxy]pyridin-3-yl}sulfonyl)-2-[(6-fluoro-1H-indol-5-yl)oxy]benzamide] | 0.183
19 | CN1CCN(Nc2ccc(S(=O)(=O)NC(=O)c3ccc(N4CCN(CC5=C(c6ccc(Cl)cc6)CC(C)(C)CC5)CC4)cc3Oc3ccccc3Cl)cc2[N+](=O)[O-])CC1 [Example 184, 2-(2-chlorophenoxy)-4-(4-{[2-(4-chlorophenyl)-4,4-dimethylcyclohex-1-en-1-yl]methyl}piperazin-1-yl)-N-({4-[(4-methylpiperazin-1-yl)amino]-3-nitrophenyl}sulfonyl)benzamide] | 0.155
20 | CC1(C)CCC(CN2CCN(c3ccc(C(=O)NS(=O)(=O)c4ccc(OCC5(F)CCOCC5)c([N+](=O)[O-])c4)c(Oc4cccc5c4CC(=O)N5)c3)CC2)=C(c2ccc(Cl)cc2)C1 [Example 313, 4-(4-{[2-(4-chlorophenyl)-4,4-dimethylcyclohex-1-en-1-yl]methyl}piperazin-1-yl)-N-({4-[(4-fluorotetrahydro-2H-pyran-4-yl)methoxy]-3-nitrophenyl}sulfonyl)-2-[(2-oxo-2,3-dihydro-1H-indol-4-yl)oxy]benzamide] | < 0.01
